Experimental data: US20250241923A1, “A DUAL SELECTIVE PI3K DELTA AND GAMMA INHIBITORS AND/OR A SALT-INDUCIBLE KINASE 3 INHIBITOR FOR TREATING SOLID TUMORS” (Incozen Therapeutics Pvt. Ltd, priority 2022, published 2025)
One block for each compound: values may come before it.

Experiments:
[1] = tested on: SK-OV-3 ovarian cancer cell line; assay: Anti-proliferative effect of taxol and Compound (M) (Example 10), SK-OV-3; type: cell-based; details: Compound (M) 3 μM added to taxol (6 nM, FIG. 7)
[2] = Metabolic stability in liver microsomes, dog; type: in vitro ADME
Source text: (§1) In in vitro studies using liver microsomes, the metabolic stability of tenalisib followed the rank order of rat>human>dog>monkey>mouse (Table 3).

[3] = Metabolic stability in liver microsomes, rat; type: in vitro ADME
Source text: as §1

SIK3 = SIK3 (Homo sapiens, UniProt Q9Y2K2); assay: SIK3 inhibition assay (enzymatic radiometric); type: biochemical; details: 10 μM ATP
[4] = Metabolic stability in liver microsomes, human; type: in vitro ADME
Source text: as §1

[5] = tested on: MCF-7 breast cancer cell lines; assay: cells; details: Homo sapiens, MCF7, 72 h, read-out: growth inhibition
MCF-7 cell lines = assay: Cell proliferation (MTT), Compound M and olaparib, MCF-7; type: cell-based; details: Homo sapiens, MCF7, olaparib alone (5 μM, FIG. 5), 72 h, read-out: growth inhibition
Description: • MCF-7 cells were plated in MEM+10% FBS complete media at pre-determined density in a 96-well plate. • Cells were exposed to either DMSO (control) alone, Compound M alone, olaparib alone, or a combination of Compound M and olaparib. • Cells were incubated for 72 h in presence of the inhibitors. • MTT reaction was performed to determine the cell viability at the end of the treatment period and absorbance was measured at wavelength 560 and 640 nM. • % cell growth inhibitions were calculated, and Tukey's analysis was performed using GraphPad Prism to compare the treated groups.

[6] = tested on: OVCAR-3 ovarian cancer cell lines; assay: Anti-proliferative activity with PARP inhibitors, OVCAR-3; type: cell-based; details: Homo sapiens, olaparib alone (3 μM, FIG. 6C), read-out: growth inhibition

SIK3, sequence (Q9Y2K2 whole entry): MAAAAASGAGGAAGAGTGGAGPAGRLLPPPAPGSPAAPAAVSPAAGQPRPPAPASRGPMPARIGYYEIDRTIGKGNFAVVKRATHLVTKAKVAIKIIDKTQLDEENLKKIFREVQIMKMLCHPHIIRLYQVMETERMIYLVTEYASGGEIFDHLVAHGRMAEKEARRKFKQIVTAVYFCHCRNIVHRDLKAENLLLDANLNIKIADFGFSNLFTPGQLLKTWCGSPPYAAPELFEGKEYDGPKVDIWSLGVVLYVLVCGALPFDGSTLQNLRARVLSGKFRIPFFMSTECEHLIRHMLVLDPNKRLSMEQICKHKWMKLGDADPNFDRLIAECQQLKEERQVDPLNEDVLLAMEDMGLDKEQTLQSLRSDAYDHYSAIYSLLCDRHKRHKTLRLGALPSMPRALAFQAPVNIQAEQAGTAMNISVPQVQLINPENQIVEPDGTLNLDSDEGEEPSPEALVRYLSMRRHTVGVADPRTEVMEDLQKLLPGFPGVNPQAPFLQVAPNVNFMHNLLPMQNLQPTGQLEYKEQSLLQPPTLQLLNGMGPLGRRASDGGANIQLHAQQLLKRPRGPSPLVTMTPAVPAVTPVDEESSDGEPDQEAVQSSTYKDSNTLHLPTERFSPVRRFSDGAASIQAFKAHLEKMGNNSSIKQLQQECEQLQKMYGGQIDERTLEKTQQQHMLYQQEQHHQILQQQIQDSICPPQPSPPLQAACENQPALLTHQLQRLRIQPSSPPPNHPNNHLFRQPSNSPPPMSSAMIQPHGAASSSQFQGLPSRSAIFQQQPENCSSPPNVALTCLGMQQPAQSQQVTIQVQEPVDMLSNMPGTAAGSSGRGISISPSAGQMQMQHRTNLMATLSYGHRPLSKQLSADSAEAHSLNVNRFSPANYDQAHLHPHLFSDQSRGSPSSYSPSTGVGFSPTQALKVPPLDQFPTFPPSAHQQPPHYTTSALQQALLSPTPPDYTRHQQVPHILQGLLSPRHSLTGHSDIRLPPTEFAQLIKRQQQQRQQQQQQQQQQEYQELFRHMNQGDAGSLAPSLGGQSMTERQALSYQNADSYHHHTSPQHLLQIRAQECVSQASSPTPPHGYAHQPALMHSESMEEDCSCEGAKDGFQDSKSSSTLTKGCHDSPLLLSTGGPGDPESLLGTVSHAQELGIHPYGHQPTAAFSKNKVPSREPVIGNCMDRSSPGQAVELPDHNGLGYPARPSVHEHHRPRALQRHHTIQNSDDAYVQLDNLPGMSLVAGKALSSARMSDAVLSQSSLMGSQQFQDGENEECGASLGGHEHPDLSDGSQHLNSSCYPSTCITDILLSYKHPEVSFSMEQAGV

% Metabolic Stability [2]: 67.6%
% Metabolic Stability [3]: 58.0%
IC50 (SIK3): 237 nM
selectivity over the SIK1 and SIK2 isoforms (SIK3): Selective over
% Metabolic Stability [4]: 58.5%
SMILES: CC[C@H](Nc1ncnc2[nH]c(O)nc12)c1oc2ccccc2c(=O)c1-c1cccc(F)c1 [Compound M, (S)-3-(3-fluorophenyl)-2-(1-((8-hydroxy-9H-purin-6-yl)amino)propyl)-4H-chromen-4-one]
potentiation of the activity of taxol [1]: potentiated

SMILES: COc1cccc2c1C(=O)c1c(O)c3c(c(O)c1C2=O)C[C@@](O)(C(=O)CO)C[C@@H]3O[C@H]1C[C@H](N)[C@H](O)[C@H](C)O1 [Doxorubicin]
inhibition at 0.05 µM [5]: 42.8%

SMILES: O=C(c1cc(Cc2n[nH]c(=O)c3ccccc23)ccc1F)N1CCN(C(=O)C2CC2)CC1 [Olaparib]
inhibition at 5 µM (MCF-7 cell lines): 43.2%
inhibition at 3 µM [6]: 29.3%
